Patent EP4623928A1, “GLP-1R ANTAGONISTS FOR THE TREATMENT OF CANCER” (Fiorina, Paolo, priority 2024, dated 2025)

Assays:
CD4^+ and CD8^+ T cells = experiment: Cell death and proliferation of CD4+ and CD8+ T cells in splenocytes activated with anti-CD3/anti-CD28 (FACS); type: cell-based, C57BL/6 mice; details: anti-CD3/anti-CD28 activated splenocytes
CD3^+ T cells = experiment: Phosphoproteomic array of CD3+ T cells; type: cell-based, murine; details: Exe-4 (1 nM), 24 hours, vs untreated
Procedure: Isolated CD3^+ T cells from splenocytes were treated with Exendin-4 (Exe-4) for 24hrs or left untreated. Total soluble proteins from both cell extracts, approximately 7×10^6 cells per conditions were used, all steps were performed using the Phospho Explorer Antibody Array kit (Full Moon Biosystems, PEX100) as recommended by the manufacturer (41). Next, soluble extracted proteins were biotinylated and were next incubated with a mixture of Cy3-streptavidin-detection buffer and the array slides were incubated on a rotating shaker for 30 min at RT. After, several washing steps, the array slides were allowed to dry by centrifugation. Dry array slides were analyzed by a slide-based microarray scanner as recommended by the manufacturer.

[1] = system: untransduced-mock and pmY-GLP-1R transduced CD3^+ T cells; experiment: Seahorse bioenergetic analysis, mock and pmY-GLP-1R transduced CD3+ T cells; type: cell-based, murine; details: pmY-GLP-1R transduced vs untransduced-mock CD3^+ T cells, Exe-4 (1 nM)
Procedure: Cellular Bioenergetics were analyzed using the Seahorse Extracellular Flux Analyzer Xfe96 (Agilent Technologies, Santa Clara, CA, United States), which simultaneously measures Oxygen Consumption Rate (OCR, pmolO2/min), ExtraCellular Acidification Rate (ECAR, mpH/min) and Proton Efflux Rate (PER, pmolH^+/min). For Seahorse experiments 150.000 cells either freshly isolated GLP-1R^pos or GLP-1R^neg CD3^+ T cells or activated with soluble anti-CD3/CD28 at 0.5 µg/ml each in the presence or not of Exe-4 (1 nM); in another setting untransduced mock CD3^+ T cells or pmY-GLP-1R CD3^+ T cells already activated with soluble anti-CD3/CD28 at 0.5 µg/ml each in the presence or not of Exe-4 (1 nM). Cells were resuspended in 50 µL assay medium (Agilent #103576-100 RPMI Medium pH7.4, supplemented with 10mM glucose, 2mM glutamine and 1mM Na-pyruvate) were seeded in each CellTak-precoated well of an Agilent Xfe96 Pro well plate. The cell plate was centrifuged 2 times at 40 × g (zero braking) for 1 minute. After centrifugation, 150 µL warm assay medium was gently added to each well. […]
Seahorse parameters were normalized to cell number in each well. To this purpose, at the end of the Seahorse analysis, cell nuclei were stained with Hoechst 33342 (1 µg/mL) for about 15 min, imaged and counted with Operetta CLS™ software Harmony, as previously described (43). […]

islet allografts = experiment: Murine islet allotransplantation (BALB/c islets into STZ-treated C57BL/6 mice); type: in vivo
Procedure: Pancreatic islets from BALB/c mice were isolated by collagenase digestion and density gradient separation as previously described (33, 34). Subsequently, four to five hundred islets were inoculated under the renal capsule of each C57BL/6 recipient rendered diabetic with streptozotocin (STZ) (200 mg/kg, administered i.p. Sigma-Aldrich). Islet transplantation success was confirmed by glycaemia normalization. Rejection of islet allografts was defined as blood glucose levels >250 mg/dl for at least 2 consecutive days (35). Treatment modalities were the following: transplanted mice were intraperitoneally injected according to the following protocols: 1) Exendin-4 (Exe-4) (Amylin Pharmaceuticals, San Diego, CA -USA) 0.2pg twice/day for two weeks after transplant; 2) Exe-4 0.2pg twice/day from the day before until two weeks after transplant; 3) Exendin-4 2µg twice/day from the day before until two weeks after transplant; 4) Exendin-4 2µg twice/day + Exendin-9-39 (Exe-9) (Sigma-Aldrich) 2µg twice/day from the day before until two weeks after transplant; 5) Exendin-4 2µg twice/day from the day before until two weeks after transplant + Rapamycin 0.1mg/die for two weeks; 6) saline 0.5ml twice/day for two weeks. The follow-up of the transplanted mice was for 100 days.

Cardiac allografts = experiment: Murine cardiac allotransplantation (BALB/c hearts into C57BL/6 mice); type: in vivo
Procedure: Cardiac allografts from BALB/c mice were transplanted intra-abdominally in C57BL/6 mice using microsurgical techniques as described (31). Rejection was determined as complete cessation of cardiac contractility and was confirmed by direct visualization. Transplanted mice were intraperitoneally injected according to the following protocols: 1) Exendin-4 (Exe-4) (Amylin Pharmaceuticals, San Diego, CA - USA) 0.2pg twice/day for two weeks after transplant; 2) Exe-4 0.2pg twice/day from the day before until two weeks after transplant; 3) Exe-4 2µg twice/day from the day before until two weeks after transplant; 4) Exe-4 2µg twice/day + Exendin-9-39 (Exe-9) (Sigma-Aldrich) 2µg twice/day from the day before until two weeks after transplant; 5) Exe-4 2µg twice/day from the day before until two weeks after transplant + Rapamycin 0.1mg/die for two weeks; 6) saline 0.5ml twice/day for two weeks.

With Exendin-4 [Exe-4] the “cell death of CD4^+ and CD8^+ T cells” value (CD4^+ and CD8^+ T cells; Exe-4 alone (1 nM)) was “significant increase”, the “proliferation of CD4^+ and CD8^+ T cells” value (CD4^+ and CD8^+ T cells; Exe-4 alone) was “no effect” and the “expression and activation of signalling molecules (phosphoproteomic arrays)” value (CD3^+ T cells) was “altered the expression and the activation of several signalling molecules”. The “ATP production from mitochondrial respiration” value [1] was “significantly increased”, the OCR values [1] was “significantly increased” and the “recipients with prolongation of islet survival up to 100 days” value (islet allografts; high doses of Exe-4 preceded by a pre-treatment) was 60%. The “[MST] (islet allograft survival)” value (islet allografts; high doses of Exe-4 preceded by a pre-treatment (2µg twice/day, i.p.), p<0.001 vs untreated) was 67 days, the “graft infiltration (Hematoxylin and eosin staining)” value (islet allografts; islet allograft at day 14, Exe-4-treated mice) was “decreased graft infiltration” and the “recipients with prolongation of islet survival up to 100 days” value (islet allografts; low dose of Exe-4) was 20%. For the same substance, the “[MST] (islet allograft survival)” value (islet allografts; low dose of Exe-4 (b66 prints 0.2pg twice/day, i.p.), untreated [MST]=12 days, p=0.001) was 41 days, the “CD8^+ effector memory cells” value (islet allografts; splenic, Exe-4 treatment) was “reduction” and the Treg lymphocytes (islet allografts; splenic, Exe-4 treatment) was “significant increase”. For the same substance, the “graft infiltration (Hematoxylin and eosin staining)” value (Cardiac allografts; day-7 heart allograft, Exe-4-treated mice) was “decrease of graft infiltration”, the “[MST] (cardiac allograft survival)” value (Cardiac allografts; first of three Exe-4 regimens listed 'respectively' (low or high dose, preceded or not with pre-treatment), untreated [MST]=7 days, p<0.01) was 9 days and the “[MST] (cardiac allograft survival)” value (Cardiac allografts; second of three Exe-4 regimens listed 'respectively', p<0.01 vs untreated) was 10 days. For the same substance, the “CD4^+ and CD8^+ effector T cells” value (Cardiac allografts; splenic, Exe-4-treated mice) was “significant decrease”, the Tregs (Cardiac allografts; splenic, Exe-4-treated mice) was “no effect” and the “[MST] (cardiac allograft survival)” value (Cardiac allografts; third of three Exe-4 regimens listed 'respectively', p<0.01 vs untreated) was 10 days.
